# Measured values published in patent US20030153051A1, “Cholesterol oxidase” (priority 1998, published 2003).
# Entries after “also recorded” stand apart in the source; their conditions may differ.
# Legend:
# [1] = test system: cholesterol oxidase derived from ST-200 strain; test: Effect of metal ions and the like on enzyme activity; assay type: biochemical, Pseudomonas sp. ST-200; details: for Relative activity (%): pH 7; for Inhibition of enzyme activity (in words): 1 mM
# [2] = test system: cholesterol oxidase derived from ST-200 strain; test: Effect of organic solvents on enzyme activity (ST-200); assay type: biochemical, Pseudomonas sp. ST-200; details: for Relative activity, ST-200: organic solvent 50% by volume of reaction solution, pH 7, 30° C., no solvent = 1; for Reaction velocity in solvent compared to cholesterol oxidases of Nocardia erythropolis, Pseudomonas sp., Streptomyces sp., Brevibacterium sp. (in words): organic solvent 50% by volume, 30° C., pH 7
# [3] = test system: cholesterol oxidase derived from Nocardia erythropolis; test: Effect of organic solvents on enzyme activity (Nocardia erythropolis); assay type: biochemical; details: organic solvent 50% by volume of reaction solution; pH 7, 30° C.; no solvent = 1
# [4] = test system: cholesterol oxidase derived from Pseudomonas sp.; test: Effect of organic solvents on enzyme activity (Pseudomonas sp.); assay type: biochemical; details: organic solvent 50% by volume of reaction solution; pH 7, 30° C.; no solvent = 1
# [5] = test system: cholesterol oxidase derived from Streptomyces sp.; test: Effect of organic solvents on enzyme activity (Streptomyces sp.); assay type: biochemical; details: organic solvent 50% by volume of reaction solution; pH 7, 30° C.; no solvent = 1
# [6] = test system: cholesterol oxidase derived from Brevibacterium sp.; test: Effect of organic solvents on enzyme activity (Brevibacterium sp.); assay type: biochemical; details: organic solvent 50% by volume of reaction solution; pH 7, 30° C.; no solvent = 1
# [7] = test system: cholesterol oxidase derived from ST-200 strain; test: Substrate specificity of enzyme; assay type: biochemical, Pseudomonas sp. ST-200; details: for Relative activity (%): various substrates, 30° C., pH 7, enzyme activity with cholesterol set to be 100
# [8] = test system: cholesterol oxidase derived from Brevibacterium sp.; test: Enzyme kinetics (Km, Vmax) of cholesterol oxidation, Lineweaver-Burk; assay type: biochemical; details: 30° C., pH 7
# Procedure: (§1) Enzyme activity was measured as described in Test Example 1 at 30° C. at pH 7.
# [9] = test system: cholesterol oxidase derived from Nocardia erythropolis; test: as above; assay type: biochemical; details: 30° C., pH 7
# Procedure: as §1
# [10] = test system: cholesterol oxidase derived from Pseudomonas sp. (comparison); test: as above; assay type: biochemical; details: 30° C., pH 7
# Procedure: as §1
# [11] = test system: cholesterol oxidase derived from Pseudomonas sp. ST-200 (FERM BP-6661); test: as above; assay type: biochemical; details: 30° C., pH 7, 0 to 1 mM cholesterol
# Procedure: as §1
# [12] = test system: cholesterol oxidase derived from Streptomyces sp.; test: as above; assay type: biochemical; details: 30° C., pH 7
# Procedure: as §1
# [13] = test system: cholesterol oxidase derived from Pseudomonas sp. ST-200 (FERM BP-6661); test: Effect of metal ions and the like (additives) on enzyme activity; assay type: biochemical; details: additive at 1 mM; activity without additive = 100; cholesterol substrate, 30° C., pH 7
# Procedure: Effect of metal ions and the like on the activity of the enzyme obtained in Example 1 was studied. Enzyme activity was measured as described in Test Example 1 at 30° C. at pH 7 after adding various metal compounds, to a final concentration of […], to the reaction system.
# [14] = 0.03% Triton X-100, 0 to 1 mM cholesterol
# [15] = head 0.03% Triton X-100 (0.3% in text)
# [16] = additive 1 mM, 30° C., cholesterol as substrate, activity without additive set to be 100
compound,measurement,setting,value
"Oc1cccc2cccnc12 [8-hydroxyquinoline, reference compound]",Relative activity (%),[1],85%
c1ccccc1 [Benzene],Effect of organic solvent on reaction velocity (in words),[2],increased
same,"Relative activity, ST-200",[2],3.0
same,"Reaction velocity in solvent compared to cholesterol oxidases of Nocardia erythropolis, Pseudomonas sp., Streptomyces sp., Brevibacterium sp. (in words)",[2],higher reaction velocity
same,"Relative activity, Nocardia erythropolis",[3],1.5
same,"Relative activity, Pseudomonas sp.",[4],1.3
same,"Relative activity, Streptomyces sp.",[5],0.9
same,"Relative activity, Brevibacterium sp.",[6],0.5
[Ca+2].[Cl-].[Cl-] [Calcium chloride],Relative activity (%),[1],106%
ClC(Cl)Cl [Chloroform],"Relative activity, ST-200",[2],0.2
same,"Relative activity, Nocardia erythropolis",[3],0.3
same,"Relative activity, Pseudomonas sp.",[4],0.1
same,"Relative activity, Streptomyces sp.",[5],0.1
same,"Relative activity, Brevibacterium sp.",[6],<0.1
"CC(C)CCC[C@@H](C)[C@H]1CC[C@H]2[C@@H]3CC=C4C[C@@H](O)CC[C@]4(C)[C@H]3CC[C@]12C [Cholesterol, cholest-5-en-3β-ol]",Action of the enzyme on the substrate (in words),[7],strongly oxidized
same,Relative activity (%),[7],100%
same,Km,[8]; [14],63.3 µM
same,Vmax,[8]; [14],12.0 µmol/min/mg
same,Km,[8]; [15],925 µM
same,Vmax,[8]; [15],11.3 µmol/min/mg
same,Km,[9]; [14],5.14 µM
same,Vmax,[9]; [14],9.8 µmol/min/mg
same,Km,[9]; [15],44 µM
same,Vmax,[9]; [15],6.8 µmol/min/mg
same,Km,[10]; [14],9.41 µM
same,Vmax,[10]; [14],11.0 µmol/min/mg
same,Km,[10]; [15],76.1 µM
same,Vmax,[10]; [15],10.3 µmol/min/mg
same,Km,[11]; 0.03% Triton X-100,4.04 µM
same,Vmax,[11]; 0.03% Triton X-100,13.1 µmol/min/mg
same,Km,[11]; [15],52.2 µM
same,Vmax,[11]; [15],12.1 µmol/min/mg
same,Km,[12]; [14],16.3 µM
same,Vmax,[12]; [14],15.8 µmol/min/mg
same,Km,[12]; [15],160 µM
same,Vmax,[12]; [15],15.3 µmol/min/mg
O=S(=O)([O-])[O-].[Cu+2] [Copper sulfate],Relative activity (%),[1]; [16],105%
C1CCCCCCC1 [Cyclooctane],Effect of organic solvent on reaction velocity (in words),[2],increased
same,"Relative activity, ST-200",[2],1.4
same,"Reaction velocity in solvent compared to cholesterol oxidases of Nocardia erythropolis, Pseudomonas sp., Streptomyces sp., Brevibacterium sp. (in words)",[2],higher reaction velocity
same,"Relative activity, Nocardia erythropolis",[3],1.1
same,"Relative activity, Pseudomonas sp.",[4],0.8
same,"Relative activity, Streptomyces sp.",[5],0.4
same,"Relative activity, Brevibacterium sp.",[6],0.2
"C[C@]12CC[C@H](O)CC1=CC[C@@H]1[C@@H]2CC[C@]2(C)C(=O)CC[C@@H]12 [Dehyoepiandrosterone, 3β-Hydroxyandrost-5-en-17-one]",Relative activity (%),[7],16%
c1ccc(Cc2ccccc2)cc1 [Diphenylmethane],Effect of organic solvent on reaction velocity (in words),[2],increased
same,"Relative activity, ST-200",[2],3.1
same,"Reaction velocity in solvent compared to cholesterol oxidases of Nocardia erythropolis, Pseudomonas sp., Streptomyces sp., Brevibacterium sp. (in words)",[2],higher reaction velocity
same,"Relative activity, Nocardia erythropolis",[3],1.6
same,"Relative activity, Pseudomonas sp.",[4],1.5
same,"Relative activity, Streptomyces sp.",[5],1.0
same,"Relative activity, Brevibacterium sp.",[6],0.8
O=C(O)CN(CCN(CC(=O)O)CC(=O)O)CC(=O)O [EDTA],Relative activity,[13],88%
"C[C@]12CC[C@H](O)C[C@@H]1CC[C@@H]1[C@@H]2CC[C@]2(C)C(=O)CC[C@@H]12 [Epiandrosterone, 5α-androstan-3β-ol-17-one]",Relative activity (%),[7],10%
"CC(C)CCC[C@@H](C)[C@H]1CC[C@H]2[C@@H]3CC=C4C[C@H](O)CC[C@]4(C)[C@H]3CC[C@]12C [Epicholesterol, Cholest-5-en-3α-ol]",Action of the enzyme on the substrate (in words),[7],does not act on; also recorded: did not act on
same,Relative activity (%),[7],0%
"CC(C)[C@@H](C)C=C[C@@H](C)[C@H]1CC[C@H]2C3=CC=C4C[C@@H](O)CC[C@]4(C)[C@H]3CC[C@]12C [Ergosterol, Ergosta-5,7,22-trien-3β-ol]",Relative activity (%),[7],20%
[Cl-].[Cl-].[Mg+2] [Magnesium chloride],Relative activity (%),[1],102%
[Cl][Hg][Cl] [Mercury chloride],Relative activity (%),[1]; [16],0%
same,Inhibition of enzyme activity (in words),[1]; cholesterol as substrate,inhibited; also recorded: strongly inhibited
[Cl][Ni][Cl] [Nickel chloride],Relative activity (%),[1],90%
Cc1ccc(C)cc1 [Paraxylene],Effect of organic solvent on reaction velocity (in words),[2],increased
same,"Relative activity, ST-200",[2],3.4
same,"Reaction velocity in solvent compared to cholesterol oxidases of Nocardia erythropolis, Pseudomonas sp., Streptomyces sp., Brevibacterium sp. (in words)",[2],higher reaction velocity
same,"Relative activity, Nocardia erythropolis",[3],1.6
same,"Relative activity, Pseudomonas sp.",[4],1.5
same,"Relative activity, Streptomyces sp.",[5],1.1
same,"Relative activity, Brevibacterium sp.",[6],0.7
"CC(=O)[C@H]1CC[C@H]2[C@@H]3CC=C4C[C@@H](O)CC[C@]4(C)[C@H]3CC[C@]12C [Pregnenolone, 3β-Hydroxypregn-5-en-20-one]",Relative activity (%),[7],32%
CCCc1ccccc1 [Propylbenzene],Effect of organic solvent on reaction velocity (in words),[2],increased
same,"Relative activity, ST-200",[2],3.2
same,"Reaction velocity in solvent compared to cholesterol oxidases of Nocardia erythropolis, Pseudomonas sp., Streptomyces sp., Brevibacterium sp. (in words)",[2],higher reaction velocity
same,"Relative activity, Nocardia erythropolis",[3],1.6
same,"Relative activity, Pseudomonas sp.",[4],1.3
same,"Relative activity, Streptomyces sp.",[5],1.1
same,"Relative activity, Brevibacterium sp.",[6],0.8
O=[N+]([O-])[O-].[Ag+] [Silver nitrate],Relative activity (%),[1]; [16],2%
same,Inhibition of enzyme activity (in words),[1]; cholesterol as substrate,inhibited; also recorded: strongly inhibited
Cc1ccccc1 [Toluene],Effect of organic solvent on reaction velocity (in words),[2],increased
same,"Relative activity, ST-200",[2],3.5
same,"Reaction velocity in solvent compared to cholesterol oxidases of Nocardia erythropolis, Pseudomonas sp., Streptomyces sp., Brevibacterium sp. (in words)",[2],higher reaction velocity
same,"Relative activity, Nocardia erythropolis",[3],1.7
same,"Relative activity, Pseudomonas sp.",[4],1.4
same,"Relative activity, Streptomyces sp.",[5],1.2
same,"Relative activity, Brevibacterium sp.",[6],0.5
[Cl-].[Cl-].[Zn+2] [Zinc chloride],Relative activity (%),[1],92%
c1cnc2c(c1)ccc1cccnc12 [o-phenanthroline],Relative activity,[13],92%
"c1ccc(-c2ccccn2)nc1 [α,α-dipyridyl, reference compound]",Relative activity (%),[1],98%
"c1ccc(-c2ccccn2)nc1 [α,α-dipyridyl]",Relative activity,[13],98%
CC(C)CCC[C@@H](C)[C@H]1CC[C@H]2[C@@H]3CC[C@H]4C[C@@H](O)CC[C@]4(C)[C@H]3CC[C@]12C [β-cholestanol],Action of the enzyme on the substrate (in words),[7],strongly oxidized
same,Relative activity (%),[7],69%
"CC[C@H](CC[C@@H](C)[C@H]1CC[C@H]2[C@@H]3CC=C4C[C@@H](O)CC[C@]4(C)[C@H]3CC[C@]12C)C(C)C [β-sitosterol, sitost-5-en-3β-ol]",Action of the enzyme on the substrate (in words),[7],strongly oxidized
same,Relative activity (%),[7],84%
Iron sulfate,Relative activity (%),[1]; [16],94%
Manganese chloride,Relative activity (%),[1]; [16],92%
